Laboratory results reported in patent EP4603105A1, “PHARMACEUTICAL COMPOSITION CONTAINING CYCLIC COMPOUND HAVING SELECTIVE KRAS INHIBITORY EFFECT AGAINST HRAS AND NRAS” (CHUGAI SEIYAKU KABUSHIKI KAISHA, priority 2022, dated 2024).
Where a SMILES comes first, the peptide text is derived from it. Bridges are numbered along the chain shown (N, C = ends). [ ]: non-standard residue; d: D form. The star is where a group is joined. hPhe(3-Cl-4-CF3) = N[C@@H](CCc1ccc(C(F)(F)F)c(Cl)c1)C(=O)O; NPrPhe(4-CF3) = CCCN[C@@H](Cc1ccc(C(F)(F)F)cc1)C(=O)O; NMeGly(cPent) = CN[C@H](C(=O)O)C1CCCC1; NMeD = CN[C@@H](CC(=O)O)C(=O)O; NMeL = CN[C@@H](CC(C)C)C(=O)O; NMeAbu = CC[C@H](NC)C(=O)O; Morpholide = C1CN(*)CCO1; NMeA = CN[C@@H](C)C(=O)O; Ac5c = NC1(C(=O)O)CCCC1; Aze = O=C(O)[C@@H]1CCN1; Ac4c = NC1(C(=O)O)CCC1; Sar = CNCC(=O)O

Key:
[1] = target: GDP-bound NRAS wild-type protein (Homo sapiens, UniProt P01111); assay: Binding to NRAS by surface plasmon resonance (SPR), KD and KD ratio to KRAS
Outline: (§1)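 Single-cycle kinetics on GDP-loaded biotin-Avi RAS captured to ~100–300 RU; 75 s ascending injections, 100 µL/min, 30°C. HBS pH 7.4 + 10 mM MgCl2/10 µM GDP/4% DMSO. 1:1 fit, KD.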

HRAS wild-type protein = HRAS wild-type protein (Homo sapiens, UniProt P01112); assay: Binding to HRAS by surface plasmon resonance (SPR), KD and KD ratio to KRAS
Outline: as §1

[2] = tested on: human lung cancer strain NCI-H441; format: cell-based
Outline: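 Proliferation was scored by […] measured after the reagent was added to cultures kept at 37°C in 5% carbon dioxide.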

[3] = ratio of KD for GDP-bound NRAS wild-type protein to KD for KRAS
[4] = ratio of KD for HRAS wild-type protein to KD for KRAS
[5] = ratio of KD value for GDP-bound NRAS wild-type protein to KD value for KRAS (SPR)
[6] = ratio of KD value for HRAS wild-type protein to KD value for KRAS (SPR)

Chain of GDP-bound NRAS wild-type protein (P01111 whole entry): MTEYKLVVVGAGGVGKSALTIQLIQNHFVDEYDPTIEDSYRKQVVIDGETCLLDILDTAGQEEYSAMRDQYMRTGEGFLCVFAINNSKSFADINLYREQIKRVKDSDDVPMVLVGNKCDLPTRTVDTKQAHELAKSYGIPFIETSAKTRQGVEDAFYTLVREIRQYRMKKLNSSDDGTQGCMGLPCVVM
Chain of HRAS wild-type protein (P01112 whole entry): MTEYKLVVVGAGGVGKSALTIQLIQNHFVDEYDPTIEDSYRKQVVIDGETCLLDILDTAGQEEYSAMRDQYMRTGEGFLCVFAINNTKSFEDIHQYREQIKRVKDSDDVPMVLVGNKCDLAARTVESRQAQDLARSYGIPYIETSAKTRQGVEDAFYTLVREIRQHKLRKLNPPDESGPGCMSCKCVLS

IC50 [2]	Compound	NRAS /KRAS [1, 3]	HRAS /KRAS (HRAS wild-type protein; [4])	other results
29.6 nM	CCCN1C(=O)[C@@H]2CCN2C(=O)CN(C)C(=O)[C@H]([C@@H](C)CC)NC(=O)[C@H](CC(C)C)N(C)C(=O)C[C@@H](C(=O)N(C)C)NC(=O)[C@H](C2CCCC2)N(C)C(=O)C2(CCC2)NC(=O)[C@@H]2CCCN2C(=O)[C@H](CCc2ccc(C(F)(F)F)c(Cl)c2)NC(=O)CN(C)C(=O)[C@@H]1Cc1ccc(C(F)(F)F)cc1 [PP0386] ([NMeL]I[Sar][Aze][NPrPhe(4-CF3)][Sar][hPhe(3-Cl-4-CF3)]P[Ac4c][NMeGly(cPent)]D-NMe2; lactam N-11)	C (A compound having a KD ratio of 0.1 or more and less than 3 is denoted as C)	B (a compound having 3 or more and less than 10 is denoted as B)	–
3.3 nM	CCO[C@@H]1C[C@H]2C(=O)NC3(CC(C)(C)C3)C(=O)N(C)[C@@H](C3CCCC3)C(=O)N(C)[C@H](C(=O)N(C)C)CC(=O)N(C)[C@@H](CC3CC3)C(=O)N[C@@H]([C@@H](C)CC)C(=O)N(C)CC(=O)N(C)[C@H]3C/C=C\CCN(C3=O)[C@@H](Cc3ccc(C(F)(F)F)cc3)C(=O)N(C)CC(=O)N[C@@H](CCc3ccc(C(F)(F)F)c(Cl)c3)C(=O)N2C1 [PP1749]	–	–	NRAS /KRAS [1, 5]: A (a compound having 10 or more and less than 20 is denoted as A); HRAS /KRAS (HRAS wild-type protein; [6]): A (a compound having 10 or more and less than 20 is denoted as A)
86 nM	CCC[C@H]1C(=O)N[C@@H]([C@@H](C)CC)C(=O)N(C)CC(=O)N(C)[C@H]2C/C=C\CCN(C2=O)[C@@H](Cc2ccc(C(F)(F)F)cc2)C(=O)N(C)CC(=O)N[C@@H](CCc2ccc3ccn(C)c3c2)C(=O)N2C[C@H](OCC)C[C@H]2C(=O)NC2(CC(C)(C)C2)C(=O)N(C)[C@@H](C(CC)CC)C(=O)N(C)[C@H](C(=O)N(C)C)CC(=O)N1C [PP2912]	AA (a compound having 20 or more is denoted as AA)	A (a compound having 10 or more and less than 20 is denoted as A)	–
108 nM	CCO[C@@H]1C[C@H]2C(=O)NC3(CC(F)(F)C3)C(=O)N(C)[C@@H](C(CC)CC)C(=O)N(C)[C@H](CC)CC(=O)N(C)[C@@H](CC)C(=O)N[C@@H]([C@@H](C)CC)C(=O)N(C)CC(=O)N(C)[C@H]3C/C=C\CCN(C3=O)[C@@H](Cc3ccc(C(F)(F)F)cc3)C(=O)N(C)CC(=O)N[C@@H](CCc3cc(F)c(C(F)(F)F)c(F)c3)C(=O)N2C1 [PP1626]	–	–	NRAS /KRAS [1, 5]: A (a compound having 10 or more and less than 20 is denoted as A); HRAS /KRAS (HRAS wild-type protein; [6]): A (a compound having 10 or more and less than 20 is denoted as A)
152 nM	CCCN1C(=O)CN(C)C(=O)[C@@H]2CCN2C(=O)[C@H]([C@@H](C)CC)NC(=O)[C@H](CC(C)C)N(C)C(=O)C[C@@H](C(=O)N(C)C)NC(=O)[C@H](C2CCCC2)N(C)C(=O)C2(CCCC2)NC(=O)[C@@H]2CCCN2C(=O)[C@H](CCc2ccc(C(F)(F)F)c(Cl)c2)NC(=O)CN(C)C(=O)[C@@H]1Cc1ccc(C(F)(F)F)cc1 [PP0373] ([NMeL]I[Aze][Sar][NPrPhe(4-CF3)][Sar][hPhe(3-Cl-4-CF3)]P[Ac5c][NMeGly(cPent)]D-NMe2; lactam N-11)	B (a compound having 3 or more and less than 10 is denoted as B)	B (a compound having 3 or more and less than 10 is denoted as B)	–
99.4 nM	CCCN1C(=O)CN(C)C(=O)CN(C)C(=O)[C@H]([C@@H](C)CC)NC(=O)[C@H](CC(C)C)N(C)C(=O)C[C@@H](C(=O)N(C)C)NC(=O)[C@H](C2CCCC2)N(C)C(=O)C2(CCC2)NC(=O)[C@@H]2CCCN2C(=O)[C@H](CCc2ccc(C(F)(F)F)c(Cl)c2)NC(=O)CN(C)C(=O)[C@@H]1Cc1ccc(C(F)(F)F)cc1 [PP0356] ([NMeL]I[Sar][Sar][NPrPhe(4-CF3)][Sar][hPhe(3-Cl-4-CF3)]P[Ac4c][NMeGly(cPent)]D-NMe2; lactam N-11)	B (a compound having 3 or more and less than 10 is denoted as B)	B (a compound having 3 or more and less than 10 is denoted as B)	–
61.9 nM	CCO[C@@H]1C[C@H]2C(=O)NC3(CCC3)C(=O)N(C)[C@@H](C(CC)CC)C(=O)N3CCC[C@@H]3CC(=O)N(C)[C@@H](CC3CC3)C(=O)N[C@@H]([C@@H](C)CC)C(=O)N(C)CC(=O)N(C)[C@H]3C/C=C\CCN(C3=O)[C@@H](Cc3ccc(C(F)(F)F)cc3)C(=O)N(C)CC(=O)N[C@@H](CCc3cc(F)c(C(F)(F)F)c(F)c3)C(=O)N2C1 [PP1612]	–	–	NRAS /KRAS [1, 5]: B (a compound having 3 or more and less than 10 is denoted as B); HRAS /KRAS (HRAS wild-type protein; [6]): B (a compound having 3 or more and less than 10 is denoted as B)
139 nM	CC[C@H](C)[C@@H]1NC(=O)[C@H](CC(C)C)N(C)C(=O)C[C@@H](C(=O)N2CCOCC2)N(CC)C(=O)[C@H](C2CCCC2)N(C)C(=O)C2(CCCC2)NC(=O)[C@@H]2CCCN2C(=O)[C@H](CCc2cc(F)c(C(F)(F)F)c(F)c2)NC(=O)CN(C)C(=O)[C@H](Cc2ccc(C(F)(F)F)cc2)N2CCCCC[C@@H](C2=O)N(C)C(=O)CN(C)C1=O [PP0477]	–	–	NRAS /KRAS ([1]; ratio of the KD value with respect to GDP-bound NRAS wild-type protein to the KD value with respect to KRAS): A (a compound having 10 or more and less than 20 is denoted as A); HRAS /KRAS (HRAS wild-type protein; ratio of the KD value with respect to HRAS wild-type protein to the KD value with respect to KRAS): A (a compound having 10 or more and less than 20 is denoted as A)
10.9 nM	CCO[C@@H]1C[C@H]2C(=O)NC3(CCC3)C(=O)N(C)[C@@H](C3CCCC3)C(=O)N(C)[C@H](C(=O)N(CC)CC)CC(=O)N(C)[C@@H](C)C(=O)N[C@@H]([C@@H](C)CC)C(=O)N(C)CC(=O)N(C)[C@H]3C/C=C\CCN(C3=O)[C@@H](Cc3ccc(C(F)(F)F)cc3)C(=O)N(C)CC(=O)N[C@@H](CCc3cc(F)c(C(F)(F)F)c(F)c3)C(=O)N2C1 [PP1308]	–	–	NRAS /KRAS ([1]; ratio of KD with respect to GDP-bound NRAS wild-type protein to KD with respect to KRAS): A (a compound having 10 or more and less than 20 is denoted as A); HRAS /KRAS (HRAS wild-type protein; ratio of KD with respect to HRAS wild-type protein to KD with respect to KRAS): A (a compound having 10 or more and less than 20 is denoted as A)
1.9 nM	CCCN1C(=O)[C@@H]2CCN2C(=O)[C@H](C)N(C)C(=O)[C@H]([C@@H](C)CC)NC(=O)[C@H](CC)N(C)C(=O)C[C@@H](C(=O)N2CCOCC2)N(C)C(=O)[C@H](C2CCCC2)N(C)C(=O)C2(CCCC2)NC(=O)[C@@H]2CCCN2C(=O)[C@H](CCc2ccc(C(F)(F)F)c(Cl)c2)NC(=O)CN(C)C(=O)[C@@H]1Cc1ccc(C(F)(F)F)cc1 [PP0194] ([NMeAbu]I[NMeA][Aze][NPrPhe(4-CF3)][Sar][hPhe(3-Cl-4-CF3)]P[Ac5c][NMeGly(cPent)][NMeD]-Morpholide; lactam N-11)	C (A compound having a KD ratio of 0.1 or more and less than 3 is denoted as C)	B (a compound having 3 or more and less than 10 is denoted as B)	–

Compound	IC50 [2]	NRAS /KRAS [1, 3]	HRAS /KRAS (HRAS wild-type protein; [4])	other results
CCC[C@H]1C(=O)N[C@@H]([C@@H](C)CC)C(=O)N(C2CC2)CC(=O)N(C)[C@H]2C/C=C\CCN(C2=O)[C@@H](Cc2ccc(C)cc2)C(=O)N(C)CC(=O)N[C@@H](CCc2cc(C)c(C(F)F)c(C)c2)C(=O)N2C[C@H](OCC)C[C@H]2C(=O)NC2(CC(C)(C)C2)C(=O)N(C)[C@@H](C2CCCC2)C(=O)N(C)[C@H](C(=O)N(C)C)CC(=O)N1C [PP2873]	128 nM	A (a compound having 10 or more and less than 20 is denoted as A)	A (a compound having 10 or more and less than 20 is denoted as A)	–
